One may read the logD as lipophilicity at a set pH, counting ionised and neutral species. Low values mean a more hydrophilic compound, high ones a more lipophilic compound. As a reminder, the pKa is the pH at which an ionisable group is half protonated. The term melting point denotes the temperature of the solid-liquid transition. Broadly, the EC50 is the concentration giving half of the maximal effect.

The source of these data is publication PMC8886574, “Synthesis, physicochemical characterization and neuroprotective evaluation of novel 1-hydroxypyrazin-2(1H)-one iron chelators in an in vitro cell model of Parkinson's disease” (Dalton Transactions (Cambridge, England : 2003), 2022).

Where two headings read alike, the source gives them in different places.

A short description of data set [1]: Trolox equivalent antioxidant capacity (TEAC) assay, ABTS radical cation decolorization. The data set is classed as biochemical. Particulars: for time to complete reaction with ABTS radical cation: TEAC assay. An excerpt: 2,2′-Azinobis-(3-ethylbenzothiazoline)-6-sulfonic acid radical cation (ABTS˙^+) is a blue/green chromophore that absorbs at 745 nm and was produced through the reaction between ABTS and potassium persulfate. Addition of antioxidants to the radical cation reduces it to the non-absorbing ABTS to an extent and on a time-scale depending on its antioxidant activity, the concentration of the antioxidant and the duration of the reaction. […] The TEAC value for a given ligand at a given time point was obtained by dividing the corresponding slope of the ligand by the slope of Trolox (Table 3 and Fig. S21 ^†).
TEAC values were calculated according to an ABTS radical cation decolorization assay. 2,2′-Azinobis-(3-ethylbenzothiazoline-6-sulphonic acid diammonium salt (ABTS, 7 mM) was dissolved in water (10 mL) and exposed to potassium persulphate (2.45 mM). After a 16-hour incubation period (dark, room temperature), the resulting solution was diluted with HPLC-grade methanol such that the absorbance of the solution at 745 nm was around 0.7. ABTS˙^+ solution (2 mL) was loaded into a cuvette and the absorbance was recorded at 745 nm. 50 μL of various concentrations of the given ligand solution were then added, the cuvette was vigorously shaken and the absorbance was measured after 1, 3 and 6 minutes. Data were plotted such that for each time point a linear system of percentage of inhibition of ABTS˙^+versus concentration of ligand was obtained. The slope of each plot was normalised with respect to that of Trolox to give the Trolox equivalence value for each time point.

The nature of data set [2]: Fe^3+ complexation: stability constants (log β) and sequestering ability (pL0.5) by spectrophotometric titration. The note with it: solvent H2O; for log β FeL / log β FeL2 / log β FeL3: Fe^3+ complex; for pL0.5: towards Fe^3+ at pH 7.4, [Fe^3+] = 10^−9 M.
Data set [3] in a line: Distribution coefficients (log D7.4), Shake Flask method, n-octanol / HEPES buffer pH 7.4. The data set is classed as physicochemical. Particulars: free ligand, n-octanol / HEPES buffered aqueous phase pH 7.4. The procedure: The method is based on the principle that the solute's distribution is determined as a ratio of concentrations of the test compound in a solution mixture, consisting of two immiscible phases, namely n-octanol and an aqueous buffer (HEPES buffer, pH 7.4).

A short description of data set [4]: Protonation constants (log K) of ligands by UV-visible spectrophotometric titration vs. pH. The data set is classed as physicochemical. The note with it: for log K LH2 / log K LH: Solvent H2O; for log K LH: I = 0.1 M (NaClO4), T = 25.0 °C; for pKa: value used as input for BBB score (Tables S1–S6). The procedure: For ligand 10a, protonation constants of the ligand were studied in both media while complexation studies were carried out only in the mixed solvent for solubility reasons.

Data set [5] concerns SH-SY5Y neuroblastoma cells. Description: Neuroprotection against 6-OHDA insult, MTT cell viability assay. The data set is classed as cell-based, Human. The note with it: for % 6-OHDA Rescue (at 100 µM): 100 µM dose of the compound; for neuroprotection against 6-OHDA (in words): 0–300 μM, pre-incubation 1 hour, 6-OHDA 24 hours; for cell viability restored: human, 24 h. The protocol:
We next evaluated the neuroprotective ability of these compounds when cells are exposed to 6-hydroxydopamine (6-OHDA), a neurotoxin that emulates various pathological aspects of PD in dopaminergic neurons, in both in vitro and in vivo disease models, including mitochondrial impairment and cell death.[26c,28,46] […] Cells were pre-treated with the compound of interest at different concentrations for 1 hour prior to treatment with 6-OHDA ([…]) for a further 24 hours.
Human SH-SY5Y neuroblastoma cells (ATCC® CRL-2266™) were plated at 20 000 cells per well in 96-well microplates, and left to adhere overnight to the well surface, in cell culture media composed of 50% advanced minimum essential medium (MEM), 50% Ham's F12 medium, 1% L-glutamine, that was supplemented with 2% fetal bovine serum (FBS). All media components were obtained from Thermo Fisher Scientific (Gibco™).
Each well's media was then replaced with 100 μL per well of serum free media, containing ascending concentrations of the novel compounds that ranged from 0–300 μM. Cells were pre-incubated with the compounds for 1 hour at 37 °C, 5% CO2, before exposure to 50 μM 6-OHDA (apart from the wells containing non-toxin treated control cells) for a further 24 hours. Just before application to cells, a 10 mM 6-OHDA hydrochloride (Sigma-Aldrich) stock concentration was prepared, by dissolving the powder in 1 mL distilled water containing 0.1% ascorbic acid (Sigma-Aldrich); the solution was protected against light and kept on ice until use.
After a further 24 hours incubation period at 37 °C in a 5% CO2 environment, cell viability was measured using the tetrazolium dye, 3-(4,5-dimethylthiazol-2-yl)-2,5-diphenyltetrazolium bromide (MTT). For this colorimetric assay, 11 μL of MTT (5 mg mL^−1) was added to the 100 μL media per well, and then incubated for 3 hours at 37 °C, 5%, CO2. For lysing the cells, an equal volume of solubilizing solution (dimethyl sulfoxide (DMSO)) was added to each well and mixed thoroughly. Absorption was measured at a wavelength of 570 nm by using a scanning multiwell spectrophotometer (Sunrise Tecan, Durham, NC, USA). Cell viability was calculated as a percentage compared to the untreated (not receiving toxin or drug compound) control wells. Data is expressed as the means ± the SEM of three independent experiments. Statistical analyses of the MTT-derived cell viability data were performed using Prism software (v3, GraphPad, San Diego, CA, USA) and using a one-way ANOVA, followed by a Dunnett's post-hoc test for multiple comparisons. Results were considered significant at P < 0.05.
(Formazan colour is commonly taken as a measure of viable cells.)

Data set [6] can be described thus: Solubility as observed during the studies (in words). In kind it is physicochemical. The note with it: for solubility in the aqueous phase (in words): HEPES-buffered aqueous phase pH 7.4 of log D7.4 determination, ligands and their Fe^3+ complexes.
For data set [7] the following is noted: cited from earlier work.
The subject of data set [8] is SH-SY5Y neuroblastoma cells. Details: method as in earlier work. The note with it: studied previously ref 27; cited from earlier work.
On the set-up of data set [9]: method as in PMID 32078022. Particulars: cited from earlier work.
A short description of data set [10]: DPPH radical scavenging assay. The data set is classed as biochemical. For orientation: Loss of DPPH colour is used to gauge radical scavenging.
The conditions of data set [11]: cited from earlier work. The source holds these as a separate data set.
Setting [12] is: value used as input for BBB score (Tables S7–S9), previously studied ligands ref 28.

Take `Cc1cncc(=O)n1O` [Ligand 11a, 1-Hydroxy-6-methylpyrazin-2(1H)-one]: the “Antioxidant activity as TEAC” value in data set [1] (t = 1 min) is given as 0.02 mM. Also, the “Antioxidant activity as TEAC” value in [1] (t = 3 min) is 0.03 mM. Further, the “Antioxidant activity as TEAC” value in data set [1] (t = 6 min) stood at 0.05 mM. For the same compound, in data set [2], the “log β FeL” value was 7.83(1), the “log β FeL2” value is 14.28(2), the “log β FeL3” value is reported as 20.19(4) and the pL0.5 is given as 3.13. Further, the logD in data set [3] is -0.4. In [4], the “log K LH2” value is 0.2(2), the “log K LH” value was 3.98(5) and the pKa was 3.98. Besides, the “% 6-OHDA Rescue (at 100 µM)” value in data set [5] came to 60%.
`O=c1cncc(-c2ccc(F)cc2)n1O` [Ligand 10c, 1-Hydroxy-6-(4-fluorophenyl)-pyrazin-2(1H)-one] registered a melting point of 210.6 to 212.5 °C. Moreover, the “solubility in water (in words)” value in data set [6] was “low water solubilities”.
Regarding `O=c1cccc(CO)n1O` [Ligand 2], the pKa in data set [7] (setting [12]) is 6.02. In addition, the “% 6-OHDA Rescue (at 100 µM)” value in data set [8] was 93%. In data set [9] (Fe^3+ complex of the ligand ref 28), the “log D7.4 of Fe^3+ complex” value is −0.18. The “log D7.4” value in data set [9] (free ligand ref 28) was −1.71.
Take `O=c1cncc(-c2ccccc2)n1O` [Ligand 10a, 1-Hydroxy-6-phenylpyrazin-2(1H)-one]: the “time to complete reaction with ABTS radical cation” value in [1] was roughly 3 min. In [1] (t = 1 min), the “Antioxidant activity as TEAC” value was found to be 0.66 mM. In addition, the “Antioxidant activity as TEAC” value in data set [1] (t = 3 min) stood at 0.69 mM. For the same compound, in data set [1] (t = 6 min), the “Antioxidant activity as TEAC” value came to 0.70 mM. For the same compound, the “solubility in water (in words)” value in [6] is on record as “very low solubility in water”. In addition, in data set [3], the logD was -1.2. For the same compound, in data set [4], the “log K LH2” value is given as “∼−0.6”, the “log K LH” value is reported as 3.18(1) and the pKa stood at 3.18. Also, in [5], the “neuroprotection against 6-OHDA (in words)” value (“neuroprotection” below) was “only marginal protection” and the “% 6-OHDA Rescue (at 100 µM)” value is 63%.
With `Cc1c(O)c(=O)ccn1C` [DFP 1, deferiprone, reference compound], the EC50 in data set [10] (methanol, steady-state) came out at 8 µg/mL; in data set [10] (read-out: EC50), 58 µM. Moreover, in data set [1], the “time to complete reaction with ABTS radical cation” value is no more than 1 min. The “Antioxidant activity as TEAC” value in [1] (t = 1 min), in [1] (t = 3 min) and in [1] (t = 6 min) was “∼0.7 mM” each time. In [8], the “% 6-OHDA Rescue (at 100 µM)” value was 117%.
Regarding `O=c1cnccn1O` [unsubstituted 1-hydroxypyrazin-2(1H)-one, 1-hydroxypyrazin-2(1H)-one], the pKa in [7] (published previously ref 35) is reported as 4.4.
On to `Cc1nc(Cc2ccc(O)cc2)c(=O)n(O)c1C` [Ligand 6d, 1-Hydroxy-3-(4-hydroxybenzyl)-5,6-dimethylpyrazin-2(1H)-one], for which the entries for the “Antioxidant activity as TEAC” value in [1] (t = 1 min), in data set [1] (t = 3 min) and in data set [1] (t = 6 min) were 0.41 mM, 0.55 mM and 0.64 mM, respectively. Also, the “solubility in the aqueous phase (in words)” value in data set [6] is given as “low solubilities”. For the same compound, the “solubility in water (in words)” value in data set [6] is “very low solubility in water”. In [4], the pKa was 5.96. Also, in [5], the “% 6-OHDA Rescue (at 100 µM)” value was found to be 64%.
For `COc1ccc(-c2cncc(=O)n2O)cc1` [Ligand 10b, 1-Hydroxy-6-(4-methoxyphenyl)-pyrazin-2(1H)-one], the melting point fell in the range of 176.8 to 179 °C. In addition, in data set [6], the “solubility in water (in words)” value is reported as “low water solubilities”.
On to `NCCc1cc(O)c(O)cc1O` [Ligand 6-OHDA, 6-hydroxydopamine, reference compound], for which the “decrease of cell viability” value in [5] (toxin only, 24 hours) is given as “approximately 50%”.
For `O=c1cncc(-c2ccc(O)cc2)n1O` [Ligand 10d, 1-Hydroxy-6-(4-hydroxyphenyl)-pyrazin-2(1H)-one], the pKa in data set [4] was found to be 4. In [5], the “neuroprotection” value is “partially prevented” and the “% 6-OHDA Rescue (at 100 µM)” value is 76%.
For the compound `Cc1ncc(=O)n(O)c1C` [Ligand 6a, 1-Hydroxy-5,6-dimethylpyrazin-2(1H)-one], the “Antioxidant activity as TEAC” value in [1] (t = 1 min) is given as 0.08 mM. Moreover, the “Antioxidant activity as TEAC” value in data set [1] (t = 3 min) worked out at 0.16 mM. The “Antioxidant activity as TEAC” value in [1] (t = 6 min) stood at 0.22 mM. In addition, in data set [2], the “log β FeL” value was 10.38(6), the “log β FeL2” value is 18.1(4), the “log β FeL3” value is recorded as 23.85(1) and the pL0.5 came out at 4.36. For the same compound, in [7] (published previously ref 35), the pKa was 4.7. For the same compound, the “log β3” value in data set [11] (1 : 3 Fe^3+ complex, different experimental conditions ref 35) is given as 20.2. Further, in data set [3], the logD is -1.73. For the same compound, in data set [4], the “log K LH2” value was 0.04(2), the “log K LH” value is recorded as 4.58(4) and the pKa amounted to 4.58. Further, in data set [5], the “neuroprotection” value is “fully rescued”, the “% 6-OHDA Rescue (at 100 µM)” value is recorded as 100% and the cell viability restored is listed as no less than 89%.
For `O=C(O)c1cccn(O)c1=O` [Ligand 3], the pKa in data set [7] (setting [12]) was 3.7. Further, the “% 6-OHDA Rescue (at 100 µM)” value in data set [8] is 84%.
Consider `CC(=O)N(O)CCCCCNC(=O)CCC(=O)N(O)CCCCCNC(=O)CCC(=O)N(O)CCCCCN` [DFO, desferrioxamine, reference compound], for which the “log β” value in data set [11] (iron affinity ref 57a,b) was 30.5.
Consider `Cc1nc(Cc2ccccc2)c(=O)n(O)c1C` [Ligand 6c, 1-Hydroxy-3-benzyl-5,6-dimethylpyrazin-2(1H)-one], for which the “Antioxidant activity as TEAC” value in [1] (t = 1 min) is 0.21 mM. In addition, in data set [1] (t = 3 min), the “Antioxidant activity as TEAC” value stood at 0.31 mM. Further, the “Antioxidant activity as TEAC” value in data set [1] (t = 6 min) is given as 0.40 mM. In data set [6], the “solubility in the aqueous phase (in words)” value was “low solubilities” and the “solubility in water (in words)” value was “very low solubility in water”. The same compound had a pKa in data set [4] of 5.53. In data set [5], the “neuroprotection” value is listed as “partially prevented”, the “% 6-OHDA Rescue (at 100 µM)” value worked out at 89% and the cell viability restored is no less than 89%.
